Test results taken from patent US5656743A, “Oligonucleotide modulation of cell growth” (priority 1994, dated 1997).
“Also recorded” adds a separate entry of the source.

Key:
[1] = tested on: HeLa S3 cells (human epithelioid cervix carcinoma); test: Cell growth of HeLa cells by counting attached cells after oligonucleotide treatment; format: cell-based; settings: for cell growth inhibitory effect: HeLa cells (FIG. 1A), 0.1-0.5 μM oligonucleotide + 10 μg/ml DOTMA, ±SD; for cell growth inhibitory effect / inhibition of cell growth (in words): serum-free, 4 h; for inhibition of cell growth (in words): oligonucleotide + 10 μg/ml DOTMA; for log HeLa cell kill: 2 days after treatment, oligonucleotide complexed with DOTMA 4 h
[2] = tested on: human tumor cells (HeLa, LOX, SN12A1); format: cell-based; settings: 0.1 and 1 μM oligonucleotide + 10 μg/ml DOTMA 4 h; for inhibition of the tumors (in words): FIG. 2 panels A-C
[3] = format: in vitro ADME; settings: after 24 hours in 10% serum-containing medium
Description: (§1) Phosphorothioate oligonucleotide SEQ ID NO: 9 was labeled with [γ^32 P]ATP by T4 polynucleotide kinass to analyze cellular uptake, efflux and stability in the presence or absence of DOTMA. […] 5-15 fold more of oligonucleotide SEQ ID NO: 9 was associated with the cells in the presence of DOTMA than in its absence. 60% of the oligonucleotide localized to the nuclei after 4 hours treatment in the presence of DOTMA, approximately 50% remained in the cells 20 hours post-treatment. The stability of phosphorothioate oligonucleotides was much greater than the phosphodiester oligonucleotides. Only 40% degradation of the phosphorothioate oligonucleotide was found after 24 hours in 10% serum-containing medium. More than 50% of the phosphodiester oligonucleotide was degraded within 1 hour. DOTMA enhanced the activity of antisense oligonucleotide phosphorothioate.

[4] = tested on: HRCC-SN12A1 cells (human renal cell carcinoma); test: Cell growth of HRCC-SN12A1 cells by counting attached cells after oligonucleotide treatment; format: cell-based
Description: HeLa S3 (ATCC CCL 2.2, human epithelioid cervix carcinoma) cells were subcultured in Dulbecco's modified Eagle Medium (D-MEM) (GIBCO BRL), supplemented with 10% fetal bovine serum (FBS) (GIBCO BRL) and 1% penicillin-streptomycin liquid (100 000 IU/ml penicillin G sodium, 10 mg/ml streptomycin sulfate in 0.85% saline) (GIBCO BRL). LOX (IMVI, human amelanotic melanoma) cells (provided by Dr. D. J. Dykes, Southern Research Institute, Birmingham, Ala.) were subcultured in RPMI 1640 medium (RPMI) (GIBCO BRL) supplemented with 10% FBS and 1% penicillin-streptomycin liquid. […] All cells were negative for mycoplasma infection as determined by a DNA stain (McGarrity, Methods in Enzymology: Cell Culture, Vol 63, p23 (Academic Press, San Diego; 1979); Freshney, Culture of Animal Cells: A Manual of Basic Techniques (Wiley-Liss, NY; 1987). […]
The effect of oligonucleotides on cell growth was determined by counting the attached cells in the 6-well plates through a phase contrast inverted microscope (Nikon Diaphot, 10×objective, 10×ocular, 4×magnification extender, total magnification: 400×). The attached cells on 10 randomly chosen fields were counted (10-200 cells/field) and the total cell number was calculated by multiplying the mean cell number by the correction factor (f6-well =6028, f24-well =1258, f10 cm dish =35,670). […]

[5] = tested on: LOX cells (human amelanotic melanoma); test: Cell growth of LOX cells by counting attached cells after oligonucleotide treatment; format: cell-based
Description: HeLa S3 (ATCC CCL 2.2, human epithelioid cervix carcinoma) cells were subcultured in Dulbecco's modified Eagle Medium (D-MEM) (GIBCO BRL), supplemented with 10% fetal bovine serum (FBS) (GIBCO BRL) and 1% penicillin-streptomycin liquid (100 000 IU/ml penicillin G sodium, 10 mg/ml streptomycin sulfate in 0.85% saline) (GIBCO BRL). LOX (IMVI, human amelanotic melanoma) cells (provided by Dr. D. J. Dykes, Southern Research Institute, Birmingham, Ala.) were subcultured in RPMI 1640 medium (RPMI) (GIBCO BRL) supplemented with 10% FBS and 1% penicillin-streptomycin liquid. HRCC-SN12A1 (human renal cell carcinoma) cells (established from the ascitic cells of intrarenally transplanted HRCC-bearing nude mouse and provided by Dr. I. J. Fidler, M.D., Anderson Cancer Center, Houston, Tex.)(Naito, etal., 1986) were subcultured in Eagle minimum essential medium (MEM) (GIBCO BRL), supplemented with 10% FBS, vitamins, L-glutamine, sodium pyruvate, non-essential amino acids and 1% penicillin-streptomycin liquid. All cells were negative for mycoplasma infection as determined by a DNA stain (McGarrity, Methods in Enzymology: Cell Culture, Vol 63, p23 (Academic Press, San Diego; 1979); Freshney, Culture of Animal Cells: A Manual of Basic Techniques (Wiley-Liss, NY; 1987).
Twenty-four hours after plating (1×10^5 cells into 6-well cell culture dishes), the cells growing in monolayer were gently washed once with 5 ml serum-free D-MEM, RPMI and MEM medium for HeLa S3, LOX and HRCC-SN12A1 cells, respectively. Freshly prepared serum-free mediumcontaining 10 μg/ml cationic lipid (DOTMA); Chiang, et al., J. Biol. Chem., 266:18162 (1991); Bennett, et al., J. Liposome Research, in press (1992); were mixed with oligonucleotide and preincubated at 37° C. in a humidified incubator for 15 minutes to allow formation of an oligonucleotide-cationic lipid complex. The oligonucleotide concentrations were between 0.001 and 10 μM, but for the majority of the experiments for HeLa S3 cells 0.1 μM, for LOX cells 0.03-0.05-0.1 μM, and for HRCC cells 0.1 μM concentrations were used. […]
The effect of oligonucleotides on cell growth was determined by counting the attached cells in the 6-well plates through a phase contrast inverted microscope (Nikon Diaphot, 10×objective, 10×ocular, 4×magnification extender, total magnification: 400×). The attached cells on 10 randomly chosen fields were counted (10-200 cells/field) and the total cell number was calculated by multiplying the mean cell number by the correction factor (f6-well =6028, f24-well =1258, f10 cm dish =35,670). […] The dead floating cells (viability was determined by […]) were not counted. The cell number in each well was determined before treatment, immediately after treatment, and daily after treatment for 5-7 days. […]

[6] = Cellular uptake, efflux and localization of 32P-labeled oligonucleotide; format: in vitro ADME
Description: as §1

[7] = tested on: HeLa and LOX human tumor cell lines; test: Nuclear aberrations, mitoses and cell growth in HeLa and LOX cells by light and fluorescence microscopy; format: cell-based; settings: 0.2 or 0.4 μM + DOTMA 4 h
Description: HeLa and LOX human tumor cell lines were analyzed by light and fluorescence microscopy after 4 hours treatment with 0.2 or 0.4 μM antisense (SEQ ID NO: 9) or sense (SEQ ID NO: 16) oligonucleotide with DOTMA. […] Nucleolar unraveling and fragmentation and chromatin alterations were observed. In some LOX cells chromatin was condensed as in prophase arrest. In HeLa cells, chromatin was condensed and compacted. Decreased mitoses correlated with decreased ^3 H-thymidine incorporation. Cell growth decreased 70-80%.

human LOX ascites tumor = test: Tumor growth inhibition, i.p. LOX ascites tumor in nude mice; format: in vivo; settings: complexed with DOTMA
Description: Intraperitoneally (i.p.) transplanted, exponentially growing LOX ascites tumor cells were harvested from nude mice, washed and resuspended in serum-free RPMI medium. A total of 2×10^6 viable cells (determined by trypan blue exclusion) in 0.5 ml RPMI medium were injected i.p. into the homozygous mutant, HSd: Athymic Nude-nu male mice (Sambrook, et al., 1989). Treatment was started 1 day after the i.p. injection of tumor cells and the oligonucleotide in the presence of DOTMA was given i.p. on days 1, 3 and 5. Tumor growth was followed by daily inspection of the animals. The experiments were terminated when the ascite tumors were visible both in controls and treated animals, generally by day 14. All animal experimentation followed the guidelines of the Baylor College of Medicine and New York Academy of Sciences.
The tumor growth inhibitory effect of antisense oligonucleotide SEQ ID NO: 9 was studied on i.p. injected LOX tumor cells. […] No tumor growth inhibition or other toxic effects occurred after treatment with PBS alone or DOTMA in PBS (1-10 mg/kg bodyweight).

[8] = two days after treatment, DOTMA 4 h serum-free
[9] = 32P-labeled phosphorothioate oligonucleotide

Sequence: TCCCAGTCCC ACCTCCCATC (antisense TCCCAGTCCCACCTCCCATC; chemistry not given here) [SEQ ID NO: 6, p120 antisense oligonucleotide, 3' UTR]
- cell growth inhibitory effect [1]: 70.7±24.8%

Sequence: CACCCGCCTT GGCCTCCCAG (antisense CACCCGCCTTGGCCTCCCAG; chemistry not given here) [SEQ ID NO: 14, p120 antisense oligonucleotide, 3' UTR]
- inhibition of the tumors (in words) [2]: marked inhibition
- inhibition of cell growth (in words) ([1]; HeLa cells): inhibitory activity

Sequence: CACGCCTCCC GACTCTGCCC (DNA CACGCCTCCCGACTCTGCCC; chemistry not given here) [SEQ ID NO: 15, reference compound]
- log HeLa cell kill ([1]; HeLa cells): 0.2 log

Sequence: CACCCGCCTT GGCCTCCCAC (antisense CACCCGCCTTGGCCTCCCAC; chemistry not given here) [SEQ ID NO: 9, p120 antisense oligonucleotide, 3' UTR]
- degradation [3]: 40%
- maximum cytocidal effect (log cell kill) ([4]; 4 days after treatment): 1.3 log
- log cell kill [4, 8]: 0.7 log
- inhibition of the tumors (in words) [2]: marked inhibition
- log-cell kill ([2]; especially 3-4 days after treatment): 0.5 to 1.5 log
- log cell kill, single treatment ([5]; 0.05 μM + DOTMA, one 4 h treatment day 1 after seeding): 1.4 log
- effect of repeated treatment ([5]; 0.05 μM + DOTMA, two 4 h treatments on days 1 and 3): killed most LOX cells and no recovery was found on day 8
- IC50 ([5]; oligonucleotide + DOTMA 4 h serum-free, two days after treatment (FIG. 4), read-out: IC50, inhibition of cell growth): 10 nM
- log cell kill [5, 8]: 1.2 log
- cell growth inhibitory effect [1]: 87.6±11.3%
- effect of repeated treatment ([1]; HeLa cells, 0.1 μM + DOTMA, two 4 h treatments on days 1 and 3): additive effects
- log HeLa cell kill ([1]; HeLa cells): 0.7 log
- inhibition of cell growth in complete medium ([1]; HeLa cells, DOTMA-mediated treatment in complete (10% FBS) medium, compared to serum-free (FIG. 1C)): very slight
- inhibition of cell growth (in words) ([1]; HeLa cells): most consistent and greatest inhibition of cell growth; also recorded: inhibitory activity
- IC50 ([1]; HeLa cells, oligonucleotide + DOTMA 4 h serum-free, two days after treatment (FIG. 4), read-out: IC50, inhibition of cell growth): 20 nM
- oligonucleotide associated with the cells, presence versus absence of DOTMA [6, 9]: 5-15 fold
- time of treatment to plateau of cellular uptake [6, 9]: 1 h
- oligonucleotide remaining in the cells ([6]; 20 hours post-treatment): approximately 50%
- oligonucleotide localized to the nuclei ([6]; after 4 hours treatment in the presence of DOTMA): 60%
- decrease of cell growth [7]: 70-80%
- decrease of mitotic cells ([7]; at 8 to 72 hours post-treatment): 70%
- decrease of mitotic cells ([7]; at 4 hours): 50%
- inhibition of cell growth in vivo (human LOX ascites tumor; 0.65 mg/kg bodyweight i.p. days 1, 3, 5): 80%
- inhibition of cell growth in vivo (human LOX ascites tumor; 6.5 mg/kg bodyweight i.p. days 1, 3, 5): 90%
- IC50, tumor growth inhibition in vivo (human LOX ascites tumor; i.p. days 1, 3, 5): 0.26 mg/kg bodyweight

Sequence: GTGGGAGGCC AAGGCGGGTG (sense GTGGGAGGCCAAGGCGGGTG; chemistry not given here) [SEQ ID NO: 16, reference compound]
- inhibition of cell growth (in words) ([1]; HeLa cells): No inhibitory effect
